In US7208515B2, “Diphenylmethyl compounds useful as muscarinic receptor antagonists” (Theravance, Inc., priority 2004, dated 2007):

Key:
hM3 receptor (CHO cells) = molecular target: T1, hM3 receptor (CHO cells) (Homo sapiens, UniProt P20309); assay: Blockade of agonist-mediated calcium release via FLIPR assay; type: cell-based; settings: CHO cells stably expressing the hM3 receptor, oxotremorine
T1 construct: expressed in transfected cells
Text: C. Blockade of Agonist-Mediated Calcium Release via FLIPR Assays
Muscarinic receptor subtypes (M1, M3 and M5 receptors), which couple to Gq proteins, activate the phospholipase C (PLC) pathway upon agonist binding to the receptor. As a result, activated PLC hydrolyzes phosphatyl inositol diphosphate (PIP2) to diacylglycerol (DAG) and phosphatidyl-1,4,5-triphosphate (IP3), which in turn generates calcium release from intracellular stores, i.e., endoplasmic and sarcoplasmic reticulum. […] This fluorescence event was measured in real time by the FLIPR, which detected the change in fluorescence from a monolayer of cells cloned with human M1 and M3, and chimpanzee M5 receptors. Antagonist potency was determined by the ability of antagonists to inhibit agonist-mediated increases in intracellular calcium. […]
To determine antagonist potency, the dose-dependent stimulation of intracellular Ca^2+ release for oxotremorine was first determined so that antagonist potency can later be measured against oxotremorine stimulation at an EC90 concentration. […]
The parameters used for the FLIPR were: exposure length of 0.4 seconds, laser strength of 0.5 watts, excitation wavelength of 488 nm, and emission wavelength of 550 nm. Baseline was determined by measuring the change in fluorescence for 10 seconds prior to addition of agonist. […]

[1] = test system: ACh-induced bronchoconstriction; assay: Duration of bronchoprotection in guinea pig model of acetylcholine-induced bronchoconstriction; type: in vivo; settings: inhalation, 1.5 hours post-dose
Procedure: Determination of Duration of Bronchoprotection in Guinea Pig Model of Acetylcholine-Induced Bronchoconstriction
Groups of six male guinea pigs (Duncan-Hartley (HsdPoc:DH) Harlan, Madison, Wis.) weighing between 250 and 350 g were individually identified by cage cards. Throughout the study animals were allowed access to food and water ad libitum.
Test compounds were administered via inhalation over 10 minutes in a whole-body exposure dosing chamber (R&S Molds, San Carlos, Calif.). The dosing chambers were arranged so that an aerosol was simultaneously delivered to 6 individual chambers from a central manifold. Guinea pigs were exposed to an aerosol of a test compound or vehicle (WFI). […] This was measured gravimetrically by comparing pre-and post-nebulization weights of the filled nebulizer.
The bronchoprotective effects of test compounds administered via inhalation were evaluated using whole body plethysmography at 1.5, 24, 48 and 72 hours post-dose.
Forty-five minutes prior to the start of the pulmonary evaluation, each guinea pig was anesthetized with an intramuscular injection of ketamine (43.75 mg/kg), xylazine (3.50 mg/kg) and acepromazine (1.05 mg/kg). […] The depth of anesthesia was monitored and adjusted if the animal responded to pinching of its paw or if the respiration rate was greater than 100 breaths/minute. […]

T1 sequence (P20309 whole entry): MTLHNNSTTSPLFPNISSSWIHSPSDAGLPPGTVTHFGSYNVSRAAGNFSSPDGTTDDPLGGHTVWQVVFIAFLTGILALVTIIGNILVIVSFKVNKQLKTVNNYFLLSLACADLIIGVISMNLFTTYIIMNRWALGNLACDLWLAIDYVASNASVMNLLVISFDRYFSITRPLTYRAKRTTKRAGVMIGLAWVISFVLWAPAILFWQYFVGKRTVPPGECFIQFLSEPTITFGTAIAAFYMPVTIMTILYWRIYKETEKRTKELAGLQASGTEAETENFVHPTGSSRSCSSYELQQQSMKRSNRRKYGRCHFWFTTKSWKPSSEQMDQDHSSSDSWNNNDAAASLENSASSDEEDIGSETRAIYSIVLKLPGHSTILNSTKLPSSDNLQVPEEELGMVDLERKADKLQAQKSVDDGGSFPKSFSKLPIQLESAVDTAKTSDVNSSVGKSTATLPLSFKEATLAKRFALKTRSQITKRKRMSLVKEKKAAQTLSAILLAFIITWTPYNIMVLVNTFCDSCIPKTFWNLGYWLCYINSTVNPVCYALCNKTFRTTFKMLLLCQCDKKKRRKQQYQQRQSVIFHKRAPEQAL

SMILES: CNCC(=O)NCCCCCN1CC[C@@H](C(C(N)=O)(c2ccccc2)c2ccccc2)C1 [Example 1]
- Ki (hM3 receptor (CHO cells)): < 0.1 µM
- PD2(50) for ACh-induced bronchoconstriction [1]: less than 200 μg/mL
